{"source": "paper PMC5218480", "about": "(PLoS ONE, 2017)", "tested_on": "MV-4-11 cells", "experiment": "Gene expression microarray analysis (Affymetrix PrimeView) and GSEA", "type": "cell-based, human", "design": "RFU PODN (11730768_x_at) / Fold change /veh PODN (11730768_x_at) / RFU LINC00158 (11744669_a_at) / Fold change /veh LINC00158 (11744669_a_at) / RFU DUSP10 (11751237_a_at) / Fold change /veh DUSP10 (11751237_a_at) / RFU ID3 (11757404_x_at) / Fold change /veh ID3 (11757404_x_at) / RFU PLEKHG5 (11737974_s_at) / Fold change /veh PLEKHG5 (11737974_s_at) / RFU LRRC4B (11730491_at) / Fold change /veh LRRC4B (11730491_at) / RFU GIMAP4 (11747438_a_at) / Fold change /veh GIMAP4 (11747438_a_at) / RFU KRT8 (11758183_x_at) / Fold change /veh KRT8 (11758183_x_at) / RFU CNN1 (11734310_a_at) / Fold change /veh CNN1 (11734310_a_at) / RFU VPS37D (11726825_at) / Fold change /veh VPS37D (11726825_at) / RFU C10orf10 (11716522_x_at) / Fold change /veh C10orf10 (11716522_x_at) / RFU KIR2DL2 /// KIR2DL4 /// KIR2DL5A /// KIR2DL5B /// KIR2DS1 /// KIR2DS2 /// KIR2DS3 /// KIR2DS4 /// KIR3DL3 /// KIR3DL3 /// KIR3DS1 (11738374_at) / Fold change /veh KIR2DL2 /// KIR2DL4 /// KIR2DL5A /// KIR2DL5B /// KIR2DS1 /// KIR2DS2 /// KIR2DS3 /// KIR2DS4 /// KIR3DL3 /// KIR3DL3 /// KIR3DS1 (11738374_at) / RFU C1QL1 (11718748_at) / Fold change /veh C1QL1 (11718748_at) / RFU TMPRSS4 (11747572_a_at) / Fold change /veh TMPRSS4 (11747572_a_at) / RFU HAMP (11756126_x_at) / Fold change /veh HAMP (11756126_x_at) / RFU RNFT2 (11725882_a_at) / Fold change /veh RNFT2 (11725882_a_at) / RFU NR4A2 (11747474_a_at) / Fold change /veh NR4A2 (11747474_a_at) / RFU ABCC12 (11746883_a_at) / Fold change /veh ABCC12 (11746883_a_at) / RFU TMEM136 (11760407_x_at) / Fold change /veh TMEM136 (11760407_x_at) / RFU CLDN22 /// WWC2 (11732394_at) / Fold change /veh CLDN22 /// WWC2 (11732394_at) / RFU HLA-DPB1 (11760878_x_at) / Fold change /veh HLA-DPB1 (11760878_x_at) / RFU SPINT1 (11716480_a_at) / Fold change /veh SPINT1 (11716480_a_at) / RFU GAP43 (11754022_s_at) / Fold change /veh GAP43 (11754022_s_at) / RFU A4GNT (11735810_at) / Fold change /veh A4GNT (11735810_at) / RFU PRB3 (11715151_x_at) / Fold change /veh PRB3 (11715151_x_at) / RFU TUBB4B (11761932_at) / Fold change /veh TUBB4B (11761932_at) / RFU CAPN14 (11732068_a_at) / Fold change /veh CAPN14 (11732068_a_at) / RFU TMCC2 (11721928_a_at) / Fold change /veh TMCC2 (11721928_a_at) / RFU IRGQ (11745062_a_at) / Fold change /veh IRGQ (11745062_a_at) / RFU FAM174B (11720279_a_at) / Fold change /veh FAM174B (11720279_a_at) / RFU TMPRSS4 (11748680_a_at) / Fold change /veh TMPRSS4 (11748680_a_at) / RFU FAM212B (11763350_a_at) / Fold change /veh FAM212B (11763350_a_at) / RFU PLEKHG5 (11743358_a_at) / Fold change /veh PLEKHG5 (11743358_a_at) / RFU ZSCAN30 (11745921_a_at) / Fold change /veh ZSCAN30 (11745921_a_at) / RFU CMKLR1 (11741424_a_at) / Fold change /veh CMKLR1 (11741424_a_at) / RFU LOC101060620 /// MAPK8IP1 (11723275_at) / Fold change /veh LOC101060620 /// MAPK8IP1 (11723275_at) / RFU SPTSSB (11747773_x_at) / Fold change /veh SPTSSB (11747773_x_at) / RFU PRSS12 (11739890_at) / Fold change /veh PRSS12 (11739890_at) / RFU BIN1 (11741810_x_at) / Fold change /veh BIN1 (11741810_x_at) / RFU WNT11 (11732464_a_at) / Fold change /veh WNT11 (11732464_a_at) / RFU C10orf10 (11716521_a_at) / Fold change /veh C10orf10 (11716521_a_at) / RFU C5orf56 (11738089_at) / Fold change /veh C5orf56 (11738089_at) / RFU CYB561 (11721691_x_at) / Fold change /veh CYB561 (11721691_x_at) / RFU ANKRD19P (11752326_a_at) / Fold change /veh ANKRD19P (11752326_a_at) / RFU OR2T12 /// OR2T33 /// OR2T8 (11738714_s_at) / Fold change /veh OR2T12 /// OR2T33 /// OR2T8 (11738714_s_at) / RFU VCAN (11748164_a_at) / Fold change /veh VCAN (11748164_a_at) / RFU JSRP1 (11732532_at) / Fold change /veh JSRP1 (11732532_at) / RFU KRTAP10-11 (11738290_x_at) / Fold change /veh KRTAP10-11 (11738290_x_at) / RFU MYO3A (11730013_a_at) / Fold change /veh MYO3A (11730013_a_at) / RFU EBF3 (11725865_a_at) / Fold change /veh EBF3 (11725865_a_at) / RFU CAMK2N1 (11719241_x_at) / Fold change /veh CAMK2N1 (11719241_x_at) / RFU C5orf56 (11738088_a_at) / Fold change /veh C5orf56 (11738088_a_at) / RFU OLFML3 (11715873_a_at) / Fold change /veh OLFML3 (11715873_a_at) / RFU LOC100653217 /// NTM (11731650_a_at) / Fold change /veh LOC100653217 /// NTM (11731650_a_at) / RFU MAPK11 (11762145_a_at) / Fold change /veh MAPK11 (11762145_a_at) / RFU FIZ1 (11724087_x_at) / Fold change /veh FIZ1 (11724087_x_at) / RFU OASL (11726364_x_at) / Fold change /veh OASL (11726364_x_at) / RFU SOX15 (11748057_x_at) / Fold change /veh SOX15 (11748057_x_at) / RFU CD79A (11719716_a_at) / Fold change /veh CD79A (11719716_a_at) / RFU HIST1H1D (11736915_at) / Fold change /veh HIST1H1D (11736915_at) / RFU CASKIN2 (11723855_a_at) / Fold change /veh CASKIN2 (11723855_a_at) / RFU LOC730098 (11760151_x_at) / Fold change /veh LOC730098 (11760151_x_at) / RFU OR4N2 (11742367_at) / Fold change /veh OR4N2 (11742367_at) / RFU PRRT2 (11749266_a_at) / Fold change /veh PRRT2 (11749266_a_at) / RFU SNX32 (11753110_a_at) / Fold change /veh SNX32 (11753110_a_at) / RFU CDHR5 (11726645_a_at) / Fold change /veh CDHR5 (11726645_a_at) / RFU RCAN1 (11760418_a_at) / Fold change /veh RCAN1 (11760418_a_at) / RFU FAM167A (11723789_a_at) / Fold change /veh FAM167A (11723789_a_at) / RFU FAM26E (11764081_at) / Fold change /veh FAM26E (11764081_at) / RFU ISYNA1 (11749810_s_at) / Fold change /veh ISYNA1 (11749810_s_at) / RFU ACY1 (11761880_at) / Fold change /veh ACY1 (11761880_at) / RFU 11764098_at / Fold change /veh 11764098_at / RFU SAMD14 (11745864_x_at) / Fold change /veh SAMD14 (11745864_x_at) / RFU NPB (11741838_a_at) / Fold change /veh NPB (11741838_a_at) / RFU TMPRSS6 (11731388_a_at) / Fold change /veh TMPRSS6 (11731388_a_at) / RFU KRTAP10-2 (11738614_at) / Fold change /veh KRTAP10-2 (11738614_at) / RFU ARHGAP8 /// PRR5-ARHGAP8 (11727945_x_at) / Fold change /veh ARHGAP8 /// PRR5-ARHGAP8 (11727945_x_at) / RFU KRTAP5-7 /// NADSYN1 (11734609_at) / Fold change /veh KRTAP5-7 /// NADSYN1 (11734609_at) / RFU RASL12 (11751679_a_at) / Fold change /veh RASL12 (11751679_a_at) / RFU CDKN2B (11736163_a_at) / Fold change /veh CDKN2B (11736163_a_at) / RFU PRF1 (11729649_at) / Fold change /veh PRF1 (11729649_at) / RFU, ZNF638 /// ZNF638-IT1 / Fold change vs veh, ZNF638 /// ZNF638-IT1 / RFU, PANK3 / Fold change vs veh, PANK3 / RFU, SH3YL1 / Fold change vs veh, SH3YL1 / RFU, ZEB2 / Fold change vs veh, ZEB2 / RFU, NRIP1 / Fold change vs veh, NRIP1 / RFU, PTTG1IP / Fold change vs veh, PTTG1IP / RFU, CAPN2 / Fold change vs veh, CAPN2 / RFU, MED14 / Fold change vs veh, MED14 / RFU, SNORA58 / Fold change vs veh, SNORA58 / RFU, C1orf63 / Fold change vs veh, C1orf63 / RFU, LRRFIP1 / Fold change vs veh, LRRFIP1 / RFU, NDUFAF7 / Fold change vs veh, NDUFAF7 / RFU, SLC12A2 / Fold change vs veh, SLC12A2 / RFU, IBTK / Fold change vs veh, IBTK / RFU, ESF1 / Fold change vs veh, ESF1 / Fold change vs veh, TMEM50B / RFU, TAOK1 / Fold change vs veh, TAOK1 / RFU, ACBD3 / Fold change vs veh, ACBD3 / RFU, TMA16 / Fold change vs veh, TMA16 / RFU, RWDD3 / Fold change vs veh, RWDD3 / RFU, BCAT1 / Fold change vs veh, BCAT1 / RFU, EDEM3 / Fold change vs veh, EDEM3 / RFU, TMEM33 / Fold change vs veh, TMEM33 / RFU, WDR75 / Fold change vs veh, WDR75 / RFU, AHCTF1 / Fold change vs veh, AHCTF1 / RFU, TFRC / Fold change vs veh, TFRC / RFU, ZDHHC17 / Fold change vs veh, ZDHHC17 / RFU, NOM1 / Fold change vs veh, NOM1 / RFU, ARL8B / Fold change vs veh, ARL8B / RFU, ZBTB11 / Fold change vs veh, ZBTB11 / RFU, TAMM41 / Fold change vs veh, TAMM41 / RFU, KIAA1704 /// LOC100996395 / Fold change vs veh, KIAA1704 /// LOC100996395 / RFU, ING1 / Fold change vs veh, ING1 / RFU, TRMT61B / Fold change vs veh, TRMT61B / RFU, FUBP3 / Fold change vs veh, FUBP3 / RFU, TP53 / Fold change vs veh, TP53 / RFU, TNKS2 / Fold change vs veh, TNKS2 / RFU, ZFP14 / Fold change vs veh, ZFP14 / RFU, ACTR2 / Fold change vs veh, ACTR2 / RFU, PPP3R1 / Fold change vs veh, PPP3R1 / RFU, PIK3R1 / Fold change vs veh, PIK3R1 / RFU, HNRNPA1 / Fold change vs veh, HNRNPA1 / RFU, RNF170 / Fold change vs veh, RNF170 / RFU, ZNF28 / Fold change vs veh, ZNF28 / RFU, RNGTT / Fold change vs veh, RNGTT / RFU, OGT / Fold change vs veh, OGT / RFU, BRD1 / Fold change vs veh, BRD1 / RFU, MARS / Fold change vs veh, MARS / RFU, ZNF655 / Fold change vs veh, ZNF655 / RFU, FAHD1 / Fold change vs veh, FAHD1 / RFU, BDP1 / Fold change vs veh, BDP1 / RFU, LRRCC1 / Fold change vs veh, LRRCC1 / RFU, ARID1A / Fold change vs veh, ARID1A / RFU, ZNF146 / Fold change vs veh, ZNF146 / RFU, ZNF330 / Fold change vs veh, ZNF330 / RFU, GPN3 / Fold change vs veh, GPN3 / RFU, C9orf123 / Fold change vs veh, C9orf123 / RFU, N4BP2L2 / Fold change vs veh, N4BP2L2 / RFU, ARFIP1 / Fold change vs veh, ARFIP1 / RFU, FAM179B / Fold change vs veh, FAM179B / RFU, BCL10 / Fold change vs veh, BCL10 / RFU, UHRF1BP1L / Fold change vs veh, UHRF1BP1L / RFU, BET1 / Fold change vs veh, BET1 / RFU, CNOT2 / Fold change vs veh, CNOT2 / RFU, ZNF268 / Fold change vs veh, ZNF268 / Fold change vs veh, ZNF507 / RFU, DGCR2 / Fold change vs veh, DGCR2 / RFU, WDSUB1 / Fold change vs veh, WDSUB1 / Fold change vs veh, HSP90B1 /// MIR3652 / RFU, ADSS / Fold change vs veh, ADSS / RFU, GK / Fold change vs veh, GK / RFU, ZNF148 / Fold change vs veh, ZNF148 / RFU, TAF9 / Fold change vs veh, TAF9 / RFU, SLC1A5 / Fold change vs veh, SLC1A5 / RFU, SLMO2 / Fold change vs veh, SLMO2 / RFU, ABCC4 / Fold change vs veh, ABCC4 / RFU, LOC101060439 /// RAP1B / Fold change vs veh, LOC101060439 /// RAP1B / RFU, RFX7 / Fold change vs veh, RFX7 / RFU, GTPBP10 / Fold change vs veh, GTPBP10 / RFU, CNEP1R1 / Fold change vs veh, CNEP1R1 / RFU, BIVM-ERCC5 /// ERCC5 / Fold change vs veh, BIVM-ERCC5 /// ERCC5 / RFU, ILF3 / Fold change vs veh, ILF3 / RFU 11762660_at / Fold change /veh 11762660_at / RFU VCAN (11757783_s_at) / Fold change /veh VCAN (11757783_s_at) / RFU DDX43 (11728927_at) / Fold change /veh DDX43 (11728927_at) / RFU KRT8 (11758188_x_at) / Fold change /veh KRT8 (11758188_x_at) / RFU NKD1 (11759106_at) / Fold change /veh NKD1 (11759106_at) / RFU SRD5A1 (11742802_a_at) / Fold change /veh SRD5A1 (11742802_a_at) / RFU TPSAB1 /// TPSB2 (11721975_s_at) / Fold change /veh TPSAB1 /// TPSB2 (11721975_s_at) / RFU GSTM3 (11746129_a_at) / Fold change /veh GSTM3 (11746129_a_at) / RFU IL23R (11737362_x_at) / Fold change /veh IL23R (11737362_x_at) / RFU TMEM51 (11727254_a_at) / Fold change /veh TMEM51 (11727254_a_at) / RFU PIWIL2 (11732686_x_at) / Fold change /veh PIWIL2 (11732686_x_at) / RFU ORM1 (11744905_x_at) / Fold change /veh ORM1 (11744905_x_at) / RFU CCDC152 (11743942_at) / Fold change /veh CCDC152 (11743942_at) / RFU ECM1 (11717891_a_at) / Fold change /veh ECM1 (11717891_a_at) / RFU IL23R (11748794_a_at) / Fold change /veh IL23R (11748794_a_at) / RFU TNFAIP8L3 (11732012_x_at) / Fold change /veh TNFAIP8L3 (11732012_x_at) / RFU MBOAT4 (11741988_at) / Fold change /veh MBOAT4 (11741988_at) / RFU 11764193_at / Fold change /veh 11764193_at / RFU TMEM53 (11763286_at) / Fold change /veh TMEM53 (11763286_at) / RFU MAGEB2 (11727129_at) / Fold change /veh MAGEB2 (11727129_at) / RFU TMEM200A (11744735_a_at) / Fold change /veh TMEM200A (11744735_a_at) / RFU CCDC152 (11751479_a_at) / Fold change /veh CCDC152 (11751479_a_at) / RFU FAM211A (11726209_a_at) / Fold change /veh FAM211A (11726209_a_at) / RFU RGS16 (11746705_a_at) / Fold change /veh RGS16 (11746705_a_at) / RFU VCAN (11755009_s_at) / Fold change /veh VCAN (11755009_s_at) / RFU RHOB (11743442_s_at) / Fold change /veh RHOB (11743442_s_at) / RFU RGS16 (11720943_a_at) / Fold change /veh RGS16 (11720943_a_at) / RFU RGS16 (11720944_at) / Fold change /veh RGS16 (11720944_at) / RFU, VPS4B / Fold change vs veh, VPS4B / RFU, CREB1 / Fold change vs veh, CREB1 / RFU, DNAJC13 / Fold change vs veh, DNAJC13 / RFU, GNAQ / Fold change vs veh, GNAQ / RFU, CDK5R1 / Fold change vs veh, CDK5R1 / RFU, ZRANB3 / Fold change vs veh, ZRANB3 / RFU, CUL4A / Fold change vs veh, CUL4A / RFU, CCNY / Fold change vs veh, CCNY / RFU, UFL1 / Fold change vs veh, UFL1 / RFU, COG3 / Fold change vs veh, COG3 / RFU, DIAPH2 / Fold change vs veh, DIAPH2 / RFU, SKA2 / Fold change vs veh, SKA2 / RFU, AFF3 / Fold change vs veh, AFF3 / RFU, LMF1 / Fold change vs veh, LMF1 / RFU, IPO11 / Fold change vs veh, IPO11 / RFU, DFFB / Fold change vs veh, DFFB / RFU, FOXP1 / Fold change vs veh, FOXP1 / RFU, CARD8 / Fold change vs veh, CARD8 / RFU, STRN3 / Fold change vs veh, STRN3 / RFU, ADK / Fold change vs veh, ADK / RFU, RASSF2 / Fold change vs veh, RASSF2 / RFU, WIPF1 / Fold change vs veh, WIPF1 / RFU, LARP1B / Fold change vs veh, LARP1B / RFU, RASA1 / Fold change vs veh, RASA1 / RFU, RB1 / Fold change vs veh, RB1 / RFU, PPFIA1 / Fold change vs veh, PPFIA1 / RFU, MAT2A / Fold change vs veh, MAT2A / RFU, CCT5 / Fold change vs veh, CCT5 / RFU, WDR92 / Fold change vs veh, WDR92 / RFU, CUX1 / Fold change vs veh, CUX1 / RFU, TTC7A / Fold change vs veh, TTC7A / RFU, TMEM135 / Fold change vs veh, TMEM135 / RFU, DEPTOR / Fold change vs veh, DEPTOR / RFU, CPM / Fold change vs veh, CPM / RFU, DNAJB6 / Fold change vs veh, DNAJB6 / RFU, CACNA2D3 / Fold change vs veh, CACNA2D3 / RFU, DTX4 / Fold change vs veh, DTX4 / RFU, TFCP2 / Fold change vs veh, TFCP2 / RFU, GMCL1 /// GMCL1P1 / Fold change vs veh, GMCL1 /// GMCL1P1 / RFU, AEBP2 / Fold change vs veh, AEBP2 / RFU, SNHG1 /// SNORD22 /// SNORD25 /// SNORD26 /// SNORD27 /// SNORD28 /// SNORD29 /// SNORD31 / Fold change vs veh, SNHG1 /// SNORD22 /// SNORD25 /// SNORD26 /// SNORD27 /// SNORD28 /// SNORD29 /// SNORD31 / Fold change (Aza/veh), C12orf56 (ProbeSet 11735607_a_at) / Fold change (ACY-1035/veh), C12orf56 (ProbeSet 11735607_a_at) / Fold change (Aza/veh), FGFR1OP (ProbeSet 11751329_s_at) / Fold change (ACY-1035/veh), FGFR1OP (ProbeSet 11751329_s_at) / Fold change (Aza/veh), VPS36 (ProbeSet 11739960_a_at) / Fold change (ACY-1035/veh), VPS36 (ProbeSet 11739960_a_at) / RFU SYPL1 (11715823_x_at) / Fold change /veh SYPL1 (11715823_x_at) / RFU IGFBP7 (11715501_s_at) / Fold change /veh IGFBP7 (11715501_s_at) / RFU REEP3 (11722064_at) / Fold change /veh REEP3 (11722064_at) / RFU IGLL1 (11728026_x_at) / Fold change /veh IGLL1 (11728026_x_at): dose or concentration left out as unconfirmed", "settings": "ProbeSet 11743567_s_at; LIST B", "data": [{"compound": "Nc1ccc(-c2cccs2)cc1NC(=O)c1ccc2c(c1)cc(C1CC1)n2CCN1CCOCC1", "note": "[ACY-1035]", "values": [{"measurement": "Fold change vs veh, ACBD3", "result": 0.99}]}]}
